Experimental data taken from patent US20230293578A1, “TREATMENT OF BACTERIAL VAGINOSIS” (priority 2020, published 2023).

System: G. vag strain 14.2
Assay: antibiotic synergy testing, checkerboard cross dilution method in broth cultures
Assay type: cell-based, Gardnerella vaginalis
Settings: Gardnerella vaginalis, 14.2; 32 mg/mL clindamycin, 24 hr; read-out: growth inhibited

Which inhibition at 32000 µg/mL does the source give for `CCC[C@@H]1C[C@@H](C(=O)N[C@@H]([C@H]2O[C@H](SC)[C@H](O)[C@@H](O)[C@H]2O)[C@H](C)Cl)N(C)C1` [clindamycin, reference compound] here?
Its inhibition at 32000 µg/mL is 27.4%.
